In patent US20210060484A1, “PROTON COUPLED ELECTROCHEMICAL CO2 CAPTURE SYSTEM” (President and Fellows of Harvard College, priority 2018, published 2021):

Experiments:
[1] = cited from earlier work
[2] = cited from earlier work; remark: listed apart in the source
[3] = solution of zero salinity; cited from earlier work
[4] = solution of zero salinity

O=C1C=C(S(=O)(=O)O)C=C(S(=O)(=O)O)C1=O [1,2-benzoquinone-3,5-disulfonic acid]
chemical stability in water [1]: chemical instability in water | reported solubility ([2]; organic PCET molecules from the redox-flow battery literature): 3000 mM

O=C(O)O [carbonic acid]
K1, first dissociation constant [3]: 1.1 µM | K2, second dissociation constant [3]: 410 pM | first pKa [4]: 6.0 | second pKa [4]: 9.4

c1ccc2nccnc2c1 [quinoxaline]
solubility ([2]; in water and in weakly alkaline aqueous solution): above 4.0 M
